Source: patent US20240067693A1, “POLYPEPTIDES AND USES THEREOF” (MEDIMMUNE LIMITED, priority 2020, published 2024)
Numbered stars: 1 amine (or outer) side, 2 acyl side, 3 side chain; on linkers, the order of the positions; unused ones are H or OH. Bridge positions count the residues as written; N and C are the ends. Square brackets hold non-standard residues; d marks the D form. Side chains are listed from the residue outwards. Peptide text beside a SMILES is read from it. * marks the point of attachment. C20 diacid = O=C(O)CCCCCCCCCCCCCCCCCCC(=O)*; C18 diacid = O=C(O)CCCCCCCCCCCCCCCCC(=O)*; γGlu = O=C(O)[C@H](CCC(=O)[*:2])N[*:1]; Dab = NCC[C@H](N)C(=O)O; Aib = CC(C)(N)C(=O)O

Tests used:
[1] = target: T1, human amylin receptor (calcitonin receptor co-expressed with receptor activity modifying protein, RAMP3) (hAMYR3) (Homo sapiens, UniProt O60896+P30988); assay: cAMP production in 1321N1 cells with stable recombinant expression of human amylin receptor (hAMYR3); type: cell-based; settings: for Ratio (selectivity hAMYR vs hCTR, ratio of EC50 values at the two receptors): EC50 hCTR / EC50 hAMYR3; for EC50: cAMP, 1321N1 cells, assay buffer with 0.1% BSA, read-out: EC50 (pM) hAMYR3
T1 construct: expressed in transfected cells
T1 sequence (P30988 25-474): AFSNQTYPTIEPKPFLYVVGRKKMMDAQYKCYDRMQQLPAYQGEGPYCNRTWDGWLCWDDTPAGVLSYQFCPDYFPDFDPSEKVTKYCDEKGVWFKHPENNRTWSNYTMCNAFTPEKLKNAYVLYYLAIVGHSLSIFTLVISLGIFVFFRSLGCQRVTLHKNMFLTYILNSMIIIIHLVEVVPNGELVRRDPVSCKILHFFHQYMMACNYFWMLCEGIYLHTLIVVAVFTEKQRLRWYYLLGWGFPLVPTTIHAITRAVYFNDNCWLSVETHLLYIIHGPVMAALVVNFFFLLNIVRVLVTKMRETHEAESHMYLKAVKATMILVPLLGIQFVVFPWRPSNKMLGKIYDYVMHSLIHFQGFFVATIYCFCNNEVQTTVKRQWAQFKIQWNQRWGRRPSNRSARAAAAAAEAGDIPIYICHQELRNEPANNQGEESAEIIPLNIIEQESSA
T1 sequence (O60896 24-148 partner): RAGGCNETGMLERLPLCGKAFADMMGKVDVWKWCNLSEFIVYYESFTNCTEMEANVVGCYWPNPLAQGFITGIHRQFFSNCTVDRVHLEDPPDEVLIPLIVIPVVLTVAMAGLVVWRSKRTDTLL
Method in brief: (§1)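 EC50 values come from 4-parameter logistic fits of HTRF cAMP signal, normalised to maximal calcitonin or amylin effect. Peptides were tested in duplicate for 30 min at RT in IBMX-containing (0.5 mM) BSA/HEPES buffer pH 7.4 on stable 1321N1 (human CTR, AMYR3) or HEK (rat CTR, AMYR3) lines.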

[2] = target: T2, human calcitonin receptor (hCTR) (Homo sapiens, UniProt P30988); assay: cAMP production in 1321N1 cells with stable recombinant expression of human calcitonin receptor (hCTR); type: cell-based; settings: cAMP, 1321N1 cells, assay buffer with 0.1% BSA; read-out: EC50 (pM) hCTR
T2 construct: expressed in transfected cells
T2 sequence (P30988 25-474): T1 sequence (P30988 25-474)
Method in brief: as §1

Row | SMILES | Ratio (selectivity hAMYR vs hCTR, ratio of EC50 values at the two receptors) [1] | EC50 [1] | EC50 [2]
1 | CC[C@H](C)[C@H](NC(=O)[C@@H]1CCCN1C(=O)CNC(=O)[C@H](Cc1ccccc1)NC(=O)[C@H](CC(N)=O)NC(=O)C(C)(C)NC(=O)[C@H](CO)NC(=O)[C@H](CO)NC(=O)[C@H](Cc1c[nH]cn1)NC(=O)[C@@H](NC(=O)[C@H](CC(C)C)NC(=O)[C@H](Cc1ccccc1)NC(=O)[C@H](Cc1c[nH]cn1)NC(=O)[C@H](C)NC(=O)[C@H](CC(C)C)NC(=O)[C@H](CCCNC(=N)N)NC(=O)[C@H](CCC(N)=O)NC(=O)[C@@H](NC(=O)[C@H](C)NC(=O)[C@@H]1CSSC[C@H](NC(=O)[C@H](CCCCN)NC(=O)[C@@H](N)CCCCNC(=O)CC[C@H](NC(=O)CCCCCCCCCCCCCCCCC(=O)O)C(=O)O)C(=O)N[C@@H](CC(N)=O)C(=O)N[C@@H]([C@@H](C)O)C(=O)N[C@@H](C)C(=O)N[C@@H]([C@@H](C)O)C(=O)N1)[C@@H](C)O)C(C)C)C(=O)N[C@@H](CC(C)C)C(=O)N1CCC[C@H]1C(=O)N1CCC[C@H]1C(=O)N[C@H](C(=O)N[C@@H](CC(N)=O)C(=O)N[C@H](C(=O)NCC(=O)N[C@@H](CO)C(=O)N[C@@H](CCC(=O)O)C(=O)N[C@H](C(=O)N[C@@H](Cc1ccc(O)cc1)C(N)=O)[C@@H](C)O)C(C)C)[C@@H](C)O [Peptide 47, K(γE-C18diacid)K[CNTATC]ATQRLAHFLVHSS(Aib)NFGPILPPTNVGSETY-amide] (H-K([γGlu-C18 diacid])KCNTATCATQRLAHFLVHSS[Aib]NFGPILPPTNVGSETY-NH2; disulfide 3-8; N-terminus assumed) | 2 | 218 pM | 468 pM
2 | CC[C@H](C)[C@H](NC(=O)[C@H](C)NC(=O)[C@@H]1CCCN1C(=O)[C@H](Cc1ccccc1)NC(=O)[C@H](CC(N)=O)NC(=O)C(C)(C)NC(=O)[C@H](CO)NC(=O)[C@H](CO)NC(=O)[C@H](Cc1c[nH]cn1)NC(=O)[C@@H](NC(=O)[C@H](CC(C)C)NC(=O)[C@H](Cc1ccccc1)NC(=O)[C@H](CC(N)=O)NC(=O)[C@H](C)NC(=O)[C@H](CC(C)C)NC(=O)[C@H](CCCNC(=N)N)NC(=O)[C@H](CCC(N)=O)NC(=O)[C@@H](NC(=O)[C@H](C)NC(=O)[C@@H]1CSSC[C@H](NC(=O)[C@@H](N)CCCCNC(=O)CC[C@H](NC(=O)CC[C@H](NC(=O)CCCCCCCCCCCCCCCCCCC(=O)O)C(=O)O)C(=O)O)C(=O)N[C@@H](CC(N)=O)C(=O)N[C@@H]([C@@H](C)O)C(=O)N[C@@H](C)C(=O)N[C@@H]([C@@H](C)O)C(=O)N1)[C@@H](C)O)C(C)C)C(=O)N[C@@H](CC(C)C)C(=O)N[C@@H](CO)C(=O)N1CCC[C@H]1C(=O)N[C@H](C(=O)N[C@@H](CC(N)=O)C(=O)N[C@H](C(=O)NCC(=O)N[C@@H](CO)C(=O)N[C@@H](CCN)C(=O)N[C@H](C(=O)N[C@@H](Cc1ccc(O)cc1)C(N)=O)[C@@H](C)O)C(C)C)[C@@H](C)O [Peptide 125, K(γE-γE-C20diacid)[CNTATC]ATQRLANFLVHSS(Aib)NFPAILSPTNVGS(Dab)TY-amide] (H-K([γGlu-γGlu-C20 diacid])CNTATCATQRLANFLVHSS[Aib]NFPAILSPTNVGS[Dab]TY-NH2; disulfide 2-7; N-terminus assumed) | 8 | – | 10200 pM
3 | CC[C@H](C)[C@H](NC(=O)[C@@H]1CCCN1C(=O)CNC(=O)[C@H](Cc1ccccc1)NC(=O)[C@H](CC(N)=O)NC(=O)[C@H](CC(N)=O)NC(=O)[C@H](CO)NC(=O)[C@H](CO)NC(=O)[C@H](Cc1c[nH]cn1)NC(=O)[C@@H](NC(=O)[C@H](CC(C)C)NC(=O)[C@H](Cc1ccccc1)NC(=O)[C@H](CCN)NC(=O)[C@H](C)NC(=O)[C@H](CC(C)C)NC(=O)[C@H](CCCNC(=N)N)NC(=O)[C@H](CCC(N)=O)NC(=O)[C@@H](NC(=O)[C@H](C)NC(=O)[C@@H]1CSSC[C@H](NC(=O)[C@H](CCCCN)NC(=O)[C@@H](N)CCCCNC(=O)CC[C@H](NC(=O)CCCCCCCCCCCCCCCCC(=O)O)C(=O)O)C(=O)N[C@@H](CC(N)=O)C(=O)N[C@@H]([C@@H](C)O)C(=O)N[C@@H](C)C(=O)N[C@@H]([C@@H](C)O)C(=O)N1)[C@@H](C)O)C(C)C)C(=O)N[C@@H](CC(C)C)C(=O)N1CCC[C@H]1C(=O)N1CCC[C@H]1C(=O)N[C@H](C(=O)N[C@@H](CCC(=O)O)C(=O)N[C@H](C(=O)NCC(=O)N[C@@H](CO)C(=O)N[C@@H](CC(N)=O)C(=O)N[C@H](C(=O)N[C@@H](Cc1ccc(O)cc1)C(N)=O)[C@@H](C)O)C(C)C)[C@@H](C)O [Peptide 34] (H-K([γGlu-C18 diacid])KCNTATCATQRLA[Dab]FLVHSSNNFGPILPPTEVGSNTY-NH2; disulfide 3-8; N-terminus assumed) | 20 | 877 pM | 17700 pM
4 | CC[C@H](C)[C@H](NC(=O)[C@@H]1CCCN1C(=O)CNC(=O)[C@H](Cc1ccccc1)NC(=O)[C@H](Cc1c[nH]cn1)NC(=O)[C@H](CC(N)=O)NC(=O)[C@H](CO)NC(=O)[C@H](CO)NC(=O)[C@H](Cc1c[nH]cn1)NC(=O)C(C)(C)NC(=O)[C@H](CC(C)C)NC(=O)[C@H](Cc1ccccc1)NC(=O)[C@H](CC(N)=O)NC(=O)[C@H](C)NC(=O)[C@H](CC(C)C)NC(=O)[C@H](CCCNC(=N)N)NC(=O)[C@H](CCC(N)=O)NC(=O)[C@@H](NC(=O)[C@H](C)NC(=O)[C@@H]1CSSC[C@H](NC(=O)[C@H](CCCCN)NC(=O)[C@@H](N)CCCCNC(=O)CC[C@H](NC(=O)CCCCCCCCCCCCCCCCC(=O)O)C(=O)O)C(=O)N[C@@H](CC(N)=O)C(=O)N[C@@H]([C@@H](C)O)C(=O)N[C@@H](C)C(=O)N[C@@H]([C@@H](C)O)C(=O)N1)[C@@H](C)O)C(=O)N[C@@H](CC(C)C)C(=O)N1CCC[C@H]1C(=O)N1CCC[C@H]1C(=O)N[C@H](C(=O)N[C@@H](CC(N)=O)C(=O)N[C@H](C(=O)NCC(=O)N[C@@H](CO)C(=O)N[C@@H](CCC(=O)O)C(=O)N[C@H](C(=O)N[C@@H](Cc1ccc(O)cc1)C(N)=O)[C@@H](C)O)C(C)C)[C@@H](C)O [Peptide 147] (H-K([γGlu-C18 diacid])KCNTATCATQRLANFL[Aib]HSSNHFGPILPPTNVGSETY-NH2; disulfide 3-8; N-terminus assumed) | 1.9 | 802 pM | 1510 pM
5 | CC[C@H](C)[C@H](NC(=O)[C@@H]1CCCN1C(=O)CNC(=O)[C@H](Cc1ccccc1)NC(=O)[C@H](CC(N)=O)NC(=O)C(C)(C)NC(=O)[C@H](CO)NC(=O)[C@H](CO)NC(=O)[C@H](Cc1c[nH]cn1)NC(=O)[C@H](CO)NC(=O)[C@H](CC(C)C)NC(=O)[C@H](Cc1ccccc1)NC(=O)[C@H](CC(N)=O)NC(=O)[C@H](C)NC(=O)[C@H](CC(C)C)NC(=O)[C@H](CCCNC(=N)N)NC(=O)[C@H](CCC(N)=O)NC(=O)[C@@H](NC(=O)[C@H](C)NC(=O)[C@@H]1CSSC[C@H](NC(=O)[C@H](CCCCN)NC(=O)[C@@H](N)CCCCNC(=O)CC[C@H](NC(=O)CCCCCCCCCCCCCCCCC(=O)O)C(=O)O)C(=O)N[C@@H](CC(N)=O)C(=O)N[C@@H]([C@@H](C)O)C(=O)N[C@@H](C)C(=O)N[C@@H]([C@@H](C)O)C(=O)N1)[C@@H](C)O)C(=O)N[C@@H](CC(C)C)C(=O)N1CCC[C@H]1C(=O)N1CCC[C@H]1C(=O)N[C@H](C(=O)N[C@@H](CC(N)=O)C(=O)N[C@H](C(=O)NCC(=O)N[C@@H](CO)C(=O)N1CCC[C@H]1C(=O)N[C@H](C(=O)N[C@@H](Cc1ccc(O)cc1)C(N)=O)[C@@H](C)O)C(C)C)[C@@H](C)O [Peptide 55, K(γE-C18diacid)K[CNTATC]ATQRLANFLSHSS(Aib)NFGPILPPTNVGSPTY-amide] (H-K([γGlu-C18 diacid])KCNTATCATQRLANFLSHSS[Aib]NFGPILPPTNVGSPTY-NH2; disulfide 3-8) | 3 | 678 pM | 1870 pM
